These results are taken from patent US7235392B2, “Apoptotic EBV-transformed lymphocytes, a therapeutic agent for post-transplant lymphoproliferative disorder” (The Ohio State University Research Foundation, priority 2001, dated 2007).

Data set [1] has as its system PA-Lymphoblastoid Cell Line. Kind of data set: PA-Lymphoblastoid Cell Line: effect of oxygen deprivation in the presence of 3 sensitizers (cell counts). Format: cell-based. As to conditions: for cell count, Time (hour) 0: time 0 h; for cell count, Time (hour) 0 / cell count, Time (hour) 4 / cell count, Time (hour) 20: solutions and cells bubbled with nitrogen for 15 minutes (oxygen deprivation); for cell count, Time (hour) 4: time 4 h; for cell count, Time (hour) 20: time 20 h. The procedure:
PA-Lymphoblastoid Cell Line: Study of the effect of oxygen deprivation in the presence of 3 sensitizers Six solutions were prepared having the solutions and the cells from each of the 6 sets were “bubbled” with nitrogen separately for 15 minutes before being mixed.

The next data set concerns LCLs. Nature of the data set: Cell synchronization with aphidicolin, flow cytometric cell cycle analysis of propidium iodide stained cells. In kind it is cell-based, human. The text has this:
Using a method described by Matherly^1 cell synchronization may be achieved with the drug aphidicolin, a DNA polymerase inhibitor. This drug prevents the cells from entering S-phase, the phase during which the cells replicate their DNA. Therefore, the cells accumulate at G1 phase, immediately prior to the start of S phase. These effects of aphidicolin are reversible; the cells return to normal cell-cycling soon after the drug is removed from the culture by washing. Thus, because all of the cells were synchronized together in G1, after removal of aphidicolin, they will proceed through S-phase together. Using flow cytometric analyis of propidium-iodine stained cells, as described by Krishan^2, we were able to determine the stage of cell cycle of the cultures:
Consequently, we hypothesize that treatment with aphidicolin will increase the effectiveness of specific killing via RBO-DNA photochemistry.
For orientation: Flow cytometry measures light scatter and fluorescence of single cells or particles in a stream.

Data set [2] deals with EBV infected human lymphoblastoid cells (LCLs). The conditions noted are these: 10 mM glutathione.

As for `Nc1n[n+]([O-])c2ccccc2[n+]1[O-]` [Tirapazamine (TPZ), Tirapazamine], in data set [1], the “cell count, Time (hour) 0” value amounted to 0.4 million cells/mL; the “cell count, Time (hour) 4” value turned out to be 0.4 million cells/mL; the “cell count, Time (hour) 20” value is 0.36 million cells/mL.

For `Cc1cc2c(cc1C)[n+]([O-])c1c(=O)[nH]c(=O)nc-1n2CC(O)C(O)C(O)CO` (stereo not shown) [RBO, riboflavin N-oxide], the hypoxic toxicity entry in data set [1] (oxygen deprivation, conclusion from cell counts) was “high hypoxic toxicity”. In addition, in data set [1], the “cell count, Time (hour) 0” value amounted to 0.45 million cells/mL; the “cell count, Time (hour) 4” value was found to be 0.46 million cells/mL; the “cell count, Time (hour) 20” value is recorded as 0.06 million cells/mL.

With `C[C@@]1(CO)[C@H](O)CC[C@@]2(C)[C@H]1CC[C@H]1C[C@@H]3C[C@@]12CC[C@]3(O)CO` [aphidicolin], the “proportion of cells in S-phase” value in the data set with LCLs (after aphidicolin treatment and removal) is “significantly increases”. For the same compound, in the data set on LCLs (after removal of aphidicolin from solution), the “time of peak proportion of cells in S-phase after removal of aphidicolin” value worked out at 6 h.

For `Cc1cc2nc3c(=O)[nH]c(=O)nc-3n(C[C@H](O)[C@H](O)[C@H](O)CO)c2cc1C` [Riboflavin (RB), Riboflavin], in data set [1], the “cell count, Time (hour) 0” value is reported as 1 million cells/mL; the “cell count, Time (hour) 4” value is recorded as 0.9 million cells/mL; the “cell count, Time (hour) 20” value was 0.63 million cells/mL.

In the case of `N[C@@H](CCC(=O)N[C@@H](CS)C(=O)NCC(=O)O)C(=O)O` [glutathione], the cell growth result in data set [2] is reported as “grow normally”.
